The values that follow are results of earlier work, collected in publication PMC11592675, “Förster Resonance Energy Transfer Measurements in Living Bacteria for Interaction Studies of BamA with BamD and Inhibitor Identification” (Cells, 2024).

Series [1] deals with clinical isolates. The conditions noted are these: several clinical isolates; cited from earlier work. An excerpt:
Resistance against known antibiotics is progressively spreading. Therefore, new antibacterial entities are urgently needed. […] The β-barrel assembly ...

Series [2] deals with BamA. The conditions noted are these: cited from earlier work. An excerpt: Resistance against known antibiotics is progressively spreading. Therefore, new antibacterial entities are urgently needed. According to the WHO, new antibiotics against gram-negative bacteria are in particular need. Common mechanisms of antibiotic resistance in gram-negative bacteria include changes in membrane and cell-wall permeability, biofilm formation, the production of efflux pumps and beta-lactamases, as well as mutation of typical targets. […] The β-barrel assembly ...

As for darobactin, the antimicrobial activity entry in series [1] was “antimicrobial activity against several clinical isolates”. Moreover, the “effect on insertion of BamA client proteins into the outer membrane” value in series [2] is recorded as “prevents the insertion of BamA client proteins into the outer membrane”.
